Results on three compounds are retold here after ChEMBL document CHEMBL3886610, “Perfluorinated 5,6-dihydro-4H-1,3-oxazin-2-amine compounds as beta-secretase inhibitors and methods of use” (2016).

Molecules are shown by their SMILES.

The target in experiment [1] is T1, Beta-secretase 1 (Homo sapiens, UniProt P56817). The experiment in a line: In Vitro BACE Cell-Based Assay: The cell-based assay measures inhibition or reduction of Aβ40 in conditioned medium of test compound treated cells expressing amyloid precursor protein. Cells stably expressing Amyloid Precursor Protein (APP) were plated at a density of 40K cells/well in 96 well plates (Costar). The cells were cultivated for 24 hours at 37° C. and 5% CO2 in DMEM supplemented with 10% FBS. The test compounds were then added to cells in 10-point dose response concentrations with the starting concentration being either 100 uM or 10 uM. The compounds were diluted from stock solutions in DMSO and the final DMSO concentration of the test compounds on cells was 0.1%. After 24 h of incubation with the test compounds the supernatant conditioned media was collected and the Aβ 40 levels were determined using a sandwich ELISA. In general terms: ELISA stands for enzyme-linked immunosorbent assay.
T1 sequence (P56817 whole entry): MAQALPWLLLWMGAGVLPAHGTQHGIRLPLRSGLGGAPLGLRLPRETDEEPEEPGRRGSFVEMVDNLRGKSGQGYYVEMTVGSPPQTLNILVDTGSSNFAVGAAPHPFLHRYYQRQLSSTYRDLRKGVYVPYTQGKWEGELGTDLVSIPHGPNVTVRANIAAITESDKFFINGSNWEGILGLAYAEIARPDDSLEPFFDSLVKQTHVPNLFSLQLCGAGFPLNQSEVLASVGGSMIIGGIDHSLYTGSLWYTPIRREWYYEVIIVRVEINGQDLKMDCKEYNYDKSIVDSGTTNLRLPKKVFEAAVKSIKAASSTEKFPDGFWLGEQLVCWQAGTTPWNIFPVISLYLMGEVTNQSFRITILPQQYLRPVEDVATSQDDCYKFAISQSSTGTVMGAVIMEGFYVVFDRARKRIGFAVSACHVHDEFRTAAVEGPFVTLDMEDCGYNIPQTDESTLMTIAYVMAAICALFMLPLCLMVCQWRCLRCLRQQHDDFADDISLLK

For a further experiment, the target named is Cathepsin D (Homo sapiens, UniProt P07339). The experiment in a line: In Vitro Enzymatic Cathepsin D FRET Assay: Recombinant Cat D was expressed in CHO cells. The assay buffer for CathepsinD is 0.05 M citrate pH 3.5, 10% DMSO final, 5 mM CHAPS. The Cat D enzyme (9 nM) is pre-incubated for one hour with inhibitors, typically in about 1 uL of DMSO according to a serial dilution, is added thereto. The assays are effectively started by the addition of different FRET substrates (20 nM for Cat D) and the combination is incubated for one hour. The FRET assay is terminated with by addition of Tris buffer, which raises the pH to neutrality, and the fluorescence is determined. The FRET substrate is a peptide with commercially available fluorophore and quencher, on opposite sides of the BACE cleavage site. […] Proteolytic cleavage of the FRET substrate releases quenching of fluorescence (Cat D excitation 500 nm and emission 580 nm). The experiment is classed as cell-based.
Cathepsin D, sequence (P07339 65-162 limits assumed): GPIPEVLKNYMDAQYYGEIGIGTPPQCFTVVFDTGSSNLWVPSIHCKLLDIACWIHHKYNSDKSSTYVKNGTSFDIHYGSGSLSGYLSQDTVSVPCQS
Cathepsin D, sequence (P07339 169-412 limits assumed): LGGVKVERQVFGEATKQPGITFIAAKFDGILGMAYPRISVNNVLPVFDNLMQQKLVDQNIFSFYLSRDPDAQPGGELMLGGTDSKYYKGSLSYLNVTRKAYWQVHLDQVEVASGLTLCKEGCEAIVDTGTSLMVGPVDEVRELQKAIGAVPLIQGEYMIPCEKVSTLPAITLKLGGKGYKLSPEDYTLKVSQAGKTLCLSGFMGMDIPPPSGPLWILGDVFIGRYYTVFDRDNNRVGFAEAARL

Experiment [2] addresses T1, Beta-secretase 1. Description: In Vitro Enzymatic BACE FRET Assay: The assay buffer used in this screen is 0.05 M acetate, pH 4.2, 10% DMSO final, 100 uM genapol (which is a nonionic detergent, below its Critical Micelle Concentration). The Beta Secretase enzyme (0.2 nM) is pre-incubated for one hour with inhibitors, typically in about 1 uL of DMSO according to a serial dilution, are added thereto. This assay is effectively started by the addition of FRET substrate (50 nM) and the combination is incubated for one hour. The FRET assay is terminated with by addition of Tris buffer, which raises the pH to neutrality, and the fluorescence is determined. The FRET substrate is a peptide with commercially available fluorophore and quencher, on opposite sides of the BACE cleavage site. Proteolytic cleavage of the FRET substrate releases quenching of fluorescence (excitation 488 nm and […]).

The term IC50 denotes the point on the concentration scale where inhibition reaches its midpoint.

On to `COC(=O)c1ccnc(Oc2ccc(F)c([C@]3(CF)C[C@@H](C(F)(F)F)OC(N)=N3)c2)c1`, for which it took 3.56 µM to reach half-maximal inhibition at Beta-secretase 1 [1] (IC50).

For `C#CCOc1ccc(C(=O)Nc2cc(F)c(F)c([C@]3(C)C[C@@H](C(F)(F)F)OC(N)=N3)c2)nc1`, the IC50 was 0.012 µM against Beta-secretase 1 [1], 1190 µM on Cathepsin D and 0.01 µM at Beta-secretase 1 [2].

Take `Cc1cc(OCC2CC2)cnc1C(=O)Nc1ccc(F)c([C@]2(CF)C[C@@H](C(F)(F)F)OC(N)=N2)c1`: the IC50 against Beta-secretase 1 [1] is 0.487 µM; at Cathepsin D (cho), above 400 µM; on Beta-secretase 1 [2], 0.12 µM.
